According to patent publication US10696692B2, “Amido-benzyl sulfone and sulfoxide derivates” (Forma TM, LLC, priority 2012, dated 2020):

Experiments:
A2780 cells = experiment: Assay 2: In-Vitro Cell Proliferation Assay (A2780 cells, SRB readout, 72 hours); format: cell-based; details: Homo sapiens, A2780, 72 h, A2780 cells, 72 hours, SRB; read-out: Cell Proliferation (IC50);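 further: viable cells counted via sulforhodamine B staining, absorbance at 570 nm, after 72 h exposure at 37 °C, DMSO 0.1% as control, media-only background subtracted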
NAMPT = NAMPT (Homo sapiens (Human), UniProt P43490); experiment: Assay 1: Biochemical Inhibition Assay (NAMPT enzymatic reaction, NMN quantified by mass spectrometry); details: read-out: Biochemical (IC50);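 further: recombinant His-tagged human NAMPT preincubated with compound 15 min, then reacted 30 min at rt with 1 µM NAM, 100 µM PRPP, 2.5 mM ATP, NMN product read by RapidFire MS, normalized to L-Cystathionine internal standard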
NAMPT, sequence (P43490 whole entry): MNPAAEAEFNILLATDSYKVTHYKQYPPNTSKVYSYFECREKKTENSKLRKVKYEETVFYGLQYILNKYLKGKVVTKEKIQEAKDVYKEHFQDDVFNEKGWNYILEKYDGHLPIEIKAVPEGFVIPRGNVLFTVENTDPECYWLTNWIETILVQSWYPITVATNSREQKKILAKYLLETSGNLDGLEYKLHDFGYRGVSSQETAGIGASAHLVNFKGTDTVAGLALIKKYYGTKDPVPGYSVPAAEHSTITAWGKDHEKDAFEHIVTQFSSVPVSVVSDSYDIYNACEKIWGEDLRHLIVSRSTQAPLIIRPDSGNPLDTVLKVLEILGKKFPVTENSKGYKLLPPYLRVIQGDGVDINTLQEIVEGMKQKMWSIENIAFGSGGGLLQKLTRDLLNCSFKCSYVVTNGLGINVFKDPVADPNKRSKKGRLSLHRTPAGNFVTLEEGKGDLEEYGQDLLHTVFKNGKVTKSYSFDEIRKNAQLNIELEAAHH

IC50 (A2780 cells) [nM]	IC50 (NAMPT) [nM]	Compound
20.5	25.9	O=C(NCc1ccc(S(=O)(=O)N2CCC(F)(F)CC2)cc1)c1ccc2nccn2c1 [Example 112, Imidazo[1,2-a]pyridine-6-carboxylic acid 4-(4,4-difluoro-piperidine-1-sulfonyl)-benzylamide]
44.6	64.2	CC(=O)N1CCC(S(=O)(=O)c2ccc(CNC(=O)c3cc4cnccc4[nH]3)cc2)CC1 [Example 113, 1H-Pyrrolo[3,2-c]pyridine-2-carboxylic acid 4-(1-acetyl-piperidine-4-sulfonyl)-benzylamide]
5.6	19.4	O=C(NCc1ccc(S(=O)(=O)C2CCN(C3COC3)CC2)cc1)c1ccc2nccn2c1 [Example 114, Imidazo[1,2-a]pyridine-6-carboxylic acid 4-(l-oxetan-3-yl-piperidine-4-sulfonyl)-benzylamide]
11.5	37.3	O=C(NCc1ccc(S(=O)(=O)C2CCN(C3COC3)CC2)cc1)c1cc2cnccc2[nH]1 [Example 115, 1H-Pyrrolo[3,2-c]pyridine-2-carboxylic acid 4-(1-oxetan-3-yl-piperidine-4-sulfonyl)-benzylamide]
44.5	229	O=C(NCc1ccc(S(=O)(=O)N2CCN(C3COC3)CC2)cc1)c1cnc2[nH]ncc2c1 [Example 117, 1H-Pyrazolo[3,4-b]pyridine-5-carboxylic acid 4-(4-oxetan-3-yl-piperazine-1-sulfonyl)-benzylamide]
121	4.1	O=C(NCc1ccc(S(=O)(=O)C2CCN(C3COC3)CC2)cc1)c1cnc2nccn2c1 [Example 118, Imidazo[1,2-a]pyrimidine-6-carboxylic acid 4-(1-oxetan-3-yl-piperidine-4-sulfonyl)-benzylamide]
352	4.4	O=C(NCc1ccc(S(=O)(=O)N2CCN(C3COC3)CC2)cc1)c1cnc2nccn2c1 [Example 119, Imidazo[1,2-a]pyrimidine-6-carboxylic acid 4-(4-oxetan-3-yl-piperazine-1-sulfonyl)-benzylamide]
1.5	4.3	O=C(NCc1ccc(S(=O)(=O)C2CCN(C3COC3)CC2)cc1)c1cc2ccncc2s1 [Example 120, Thieno[2,3-c]pyridine-2-carboxylic acid 4-(1-oxetan-3-yl-piperidine-4-sulfonyl)-benzylamide]
1.1	5.8	CC(C)(C)OC(=O)N1CCC2(CC1)CCN(S(=O)(=O)c1ccc(CNC(=O)c3ccc4nccn4c3)cc1)CC2 [Example 121, 9-(4-{[(Imidazo[1,2-a]pyridine-6-carbonyl)-amino]-methyl}-benzenesulfonyl)-3,9-diaza-spiro[5.5]undecane-3-carboxylic acid tert-butyl ester]
2.6	25.5	CC(C)(C)OC(=O)N1CCCC2(CCN(S(=O)(=O)c3ccc(CNC(=O)c4ccc5nccn5c4)cc3)CC2)C1 [Example 122, 9-(4-{[(Imidazo[1,2-a]pyridine-6-carbonyl)-amino]-methyl}-benzenesulfonyl)-2,9-diaza-spiro[5.5]undecane-2-carboxylic acid tert-butyl ester]
4.65	40.5	CC(C)(C)OC(=O)N1CCC2(CC1)CN(S(=O)(=O)c1ccc(CNC(=O)c3ccc4nccn4c3)cc1)CCO2 [Example 124, 4-(4-{[(Imidazo[1,2-a]pyridine-6-carbonyl)-amino]-methyl}-benzenesulfonyl)-1-oxa-4,9-diaza-spiro[5.5]undecane-9-carboxylic acid tert-butyl ester]
1.37	11.2	CC(C)(C)OC(=O)N1CCCC12CCN(S(=O)(=O)c1ccc(CNC(=O)c3ccc4nccn4c3)cc1)CC2 [Example 125, 8-(4-{[(Imidazo[1,2-a]pyridine-6-carbonyl)-amino]-methyl}-benzenesulfonyl)-1,8-diaza-spiro[4.5]decane-1-carboxylic acid tert-butyl ester]
2.77	14.5	CC(C)(C)OC(=O)NC1CC2(CCN(S(=O)(=O)c3ccc(CNC(=O)c4ccc5nccn5c4)cc3)CC2)C1 [Example 127]
8.75	34	CC(C)(C)OC(=O)NCC12CC(CN1S(=O)(=O)c1ccc(CNC(=O)c3ccc4nccn4c3)cc1)C2 [Example 129, [2-(4-{[(Imidazo[1,2-a]pyridine-6-carbonyl)-amino]-methyl}-benzenesulfonyl)-2-aza-bicyclo[2.1.1]hex-1-ylmethyl]-carbamic acid tert-butyl ester]
5.8	40.4	CC(C)(C)OC(=O)N1CCC2(CCCN(S(=O)(=O)c3ccc(CNC(=O)c4ccc5nccn5c4)cc3)C2)CC1 [Example 131, 2-(4-{[(Imidazo[1,2-a]pyridine-6-carbonyl)-amino]-methyl}-benzenesulfonyl)-2,9-diaza-spiro[5.5]undecane-9-carboxylic acid tert-butyl ester]
24.9	28.8	O=C(NCc1ccc(S(=O)(=O)N2CC3COCC(C2)C3O)cc1)c1ccc2nccn2c1 (stereo not shown) [Example 138, Imidazo[1,2-a]pyridine-6-carboxylic acid 4-(9-hydroxy-3-oxa-7-aza-bicyclo[3.3.1]nonane-7-sulfonyl)-benzylamide]
12.5	28.4	CC1(O)CCN(S(=O)(=O)c2ccc(CNC(=O)c3ccc4nccn4c3)cc2)CC1 [Example 145, Imidazo[1,2-a]pyridine-6-carboxylic acid 4-(4-hydroxy-4-methyl-piperidine-1-sulfonyl)-benzylamide]
3.1	12.7	O=C(NCc1ccc(S(=O)(=O)N2CCC3OCCC3C2)cc1)c1ccc2nccn2c1 (stereo not shown) [Example 146, Imidazo[1,2-a]pyridine-6-carboxylic acid 4-(hexahydro-furo[3,2-c]pyridine-5-sulfonyl)-benzylamide]
45.8	31.5	O=C(NCc1ccc(S(=O)(=O)N2CCC[C@H](O)C2)cc1)c1cc2ccncc2o1 [Example 150, Furo[2,3-c]pyridine-2-carboxylic acid 4-((S)-3-hydroxy-piperidine-1-sulfonyl)-benzylamide]
45	27.4	O=C(NCc1ccc(S(=O)(=O)N2CCC[C@@H](O)C2)cc1)c1cc2ccncc2o1 [Example 151, Furo[2,3-c]pyridine-2-carboxylic acid 4-((R)-3-hydroxy-piperidine-1-sulfonyl)-benzylamide]
30.5	32.1	O=C(NCc1ccc(S(=O)(=O)N2CCC3(CCNC3)CC2)cc1)c1ccc2nccn2c1 [Example 152, Imidazo[1,2-a]pyridine-6-carboxylic acid 4-(2,8-diaza-spiro[4.5]decane-8-sulfonyl)-benzylamide]
48.9	16.5	O=C(NCc1ccc(S(=O)(=O)N2CC3COCC3C2)cc1)c1cc2ccncc2o1 (stereo not shown) [Example 153, Furo[2,3-c]pyridine-2-carboxylic acid 4-(tetrahydro-furo[3,4-c]pyrrole-5-sulfonyl)-benzylamide]
14.9	17.9	O=C(NCc1ccc(S(=O)(=O)N2CCC(N3CCCC3)CC2)cc1)c1cc2ccncc2o1 [Example 157, Furo[2,3-c]pyridine-2-carboxylic acid 4-(4-pyrrolidin-1-yl-piperidine-1-sulfonyl)-benzylamide]
